Data on 7 compounds can be found in ChEMBL document CHEMBL1147236, “Semiplenamides A-G, fatty acid amides from a Papua New Guinea collection of the marine cyanobacterium Lyngbya semiplena” (J Nat Prod, 2003).

Usually Ki stands for a measure of affinity in units of concentration, obtained from inhibition or displacement. As usually defined, the IC50 is the concentration that gives 50% inhibition.

Series [1] in a line: Toxicity in Artemia salina after 24 hrs. Type of series: organism-based. As to conditions: in vivo, read-out: LD50.
The next series concerns the target Cannabinoid receptor 1 (Rattus norvegicus, UniProt P20272). Kind of series: Displacement of [3H]SR141716A from CB1 receptor in CD rat brain membranes. Type of series: cell membranes, Membrane. Background: In a radioligand displacement assay an active substance lowers the binding of a labelled ligand.
Series [2] is described as follows: Inhibition of AMT in rat RBL-2H3 cells assessed as [14C]anandamide uptake. Type of series: cell-based.

Chain of Cannabinoid receptor 1 (P20272 whole entry): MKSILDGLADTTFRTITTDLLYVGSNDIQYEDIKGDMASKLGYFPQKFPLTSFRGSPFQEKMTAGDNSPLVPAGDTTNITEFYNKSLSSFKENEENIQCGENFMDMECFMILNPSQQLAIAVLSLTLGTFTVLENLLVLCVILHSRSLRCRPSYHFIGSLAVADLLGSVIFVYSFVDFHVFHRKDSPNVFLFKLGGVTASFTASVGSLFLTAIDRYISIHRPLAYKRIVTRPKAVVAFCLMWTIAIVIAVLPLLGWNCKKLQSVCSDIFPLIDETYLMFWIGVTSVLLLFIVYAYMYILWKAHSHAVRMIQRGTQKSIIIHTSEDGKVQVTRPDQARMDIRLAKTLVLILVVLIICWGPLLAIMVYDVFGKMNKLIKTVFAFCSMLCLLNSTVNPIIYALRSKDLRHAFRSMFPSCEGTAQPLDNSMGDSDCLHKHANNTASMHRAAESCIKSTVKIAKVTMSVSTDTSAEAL

Take `CCCCCCCCCCCCC/C=C/CC/C=C(\C)C(=O)NCCO` [SEMIPLENAMIDE A]: the LC50 at 24 h in series [1] came out at 1.4 µM. The Ki on Cannabinoid receptor 1 was found to be 19.5 µM. In series [2], the IC50 amounted to 18.1 µM. On to `CCCCCCCCCCCCC/C=C/CC/C=C(\C)C(=O)NCCOC(C)=O` [SEMIPLENAMIDE B], for which the LC50 at 24 h in series [1] is 2.5 µM. Affinity on Cannabinoid receptor 1 was put at a Ki of 18.7 µM. Consider `CCCCCCCCCCCCC/C=C(\C)C(=O)N[C@@H](C)CO` [SEMIPLENAMIDE C], for which the LC50 at 24 h in series [1] came out at 1.5 µM. For `CCCCCCCCCCCCCCCCC/C=C(\C)C(=O)N[C@@H](C)COC(C)=O` [SEMIPLENAMIDE D], in series [1], the LC50 at 24 h came out at 18 µM.

For the compound `CCCCCCCCCCCCCCC/C=C(\C)C(=O)N[C@@H](C)COC(C)=O` [SEMIPLENAMIDE E], the LC50 at 24 h in series [1] worked out at 19 µM. Still for that read-out and setting: for `CCCCCCCCCCCCCCC[C@H]1O[C@]1(C)C(=O)NC(C)CO` (stereo partly specified) [SEMIPLENAMIDE F] the value was 1.4 µM. `CCCCCCCCCCCCCCC[C@H]1O[C@]1(C)C(=O)NC(C)COC(C)=O` (stereo partly specified) [SEMIPLENAMIDE G]: the LC50 at 24 h in series [1] stood at 2.4 µM. Further, affinity on Cannabinoid receptor 1 was put at a Ki of 17.9 µM.
